The values below come from patent publication US9370506B2, “Modulators of aldehyde dehydrogenase and methods of use thereof” (The Board of Trustees of the Leland Stanford Junior …, priority 2008, dated 2016).

Holding throughout (type): biochemical
One assay deals with T1, ALDH2 (Homo sapiens, UniProt P05091, E504K).
T1 sequence (P05091 18-517 E504K): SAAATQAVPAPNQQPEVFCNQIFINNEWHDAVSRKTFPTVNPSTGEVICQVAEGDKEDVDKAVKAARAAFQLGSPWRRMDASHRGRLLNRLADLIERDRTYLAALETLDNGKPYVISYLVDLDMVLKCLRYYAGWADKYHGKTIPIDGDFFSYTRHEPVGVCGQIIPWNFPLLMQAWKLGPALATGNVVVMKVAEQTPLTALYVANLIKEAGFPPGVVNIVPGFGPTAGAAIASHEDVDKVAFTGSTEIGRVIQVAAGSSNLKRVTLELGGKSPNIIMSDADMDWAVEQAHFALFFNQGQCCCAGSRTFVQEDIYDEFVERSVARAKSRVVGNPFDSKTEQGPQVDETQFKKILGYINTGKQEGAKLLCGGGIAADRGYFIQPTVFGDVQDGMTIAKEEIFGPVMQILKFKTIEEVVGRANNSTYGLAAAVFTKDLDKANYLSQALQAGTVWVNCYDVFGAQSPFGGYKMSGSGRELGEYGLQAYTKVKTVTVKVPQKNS
The experiment in a line: Screening for ALDH2 agonists (NAD+ to NADH, optionally diaphorase/resazurin-coupled). Conditions: increase of ALDH2 activity; 10 mM acetaldehyde as substrate. The method, then:
Compounds were screened using a method as depicted schematically in FIG. 4. Essentially, the reaction is carried out at 25° C. in 0.1 NaPPi buffer, pH 9.5, 2.4 mM NAD^+ and 10 mM acetaldehyde as the substrate. Enzymatic activity is measured by a reductive reaction of NAD^+ to NADH at 340 nm. Alternatively, the production of NADH can be coupled with another enzymatic reaction that consumes NADH and that provides for a detectable signal. An example of such an enzymatic reaction is a diaphorase-based reaction, which reduces resazurin to its […] fluorescent compound resorufin.
For example, a 120 μl reaction mixture for ALDH enzymatic activity comprises the following components:
43 μl 150 mM sodium pyrophosphate (NaPPi) buffer, pH 9.0;
15 μl 80 mM acetaldehyde;
1 μl of resazurin (0.2 mg/ml in H2O);
1 μl of diaphorase (1 unit, e.g., from Clostridium kluyveri);
2 μl of variant ALDH2 (e.g., 2 μl of variant ALDH2 at (0.5-2 μg/μl); and
28 μl of a solution comprising an agent to be tested, which agent has been resuspended in an appropriate solvent (e.g., an aqueous solution, DMSO, and the like).
Approximately 65,000 compounds were screened. A number of compounds were identified that increase the activity of ALDH2.

Assay [1] concerns the target T2, E488K ALDH1 mutant recombinant protein (Homo sapiens, UniProt P00352, E488K).
T2 sequence (P00352 1-501 E488K): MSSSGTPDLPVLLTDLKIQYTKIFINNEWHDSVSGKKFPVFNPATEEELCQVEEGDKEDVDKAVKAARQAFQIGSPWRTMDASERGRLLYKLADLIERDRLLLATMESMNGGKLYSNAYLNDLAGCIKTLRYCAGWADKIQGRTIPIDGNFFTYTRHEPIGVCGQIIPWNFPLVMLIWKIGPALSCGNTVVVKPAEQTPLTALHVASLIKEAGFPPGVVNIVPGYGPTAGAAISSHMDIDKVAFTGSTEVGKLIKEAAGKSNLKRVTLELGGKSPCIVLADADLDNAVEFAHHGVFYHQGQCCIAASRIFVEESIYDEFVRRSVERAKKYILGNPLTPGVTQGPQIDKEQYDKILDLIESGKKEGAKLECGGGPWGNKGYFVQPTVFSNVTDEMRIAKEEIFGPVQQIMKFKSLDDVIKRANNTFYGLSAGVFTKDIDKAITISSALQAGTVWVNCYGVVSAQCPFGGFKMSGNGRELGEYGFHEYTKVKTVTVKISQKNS
The experiment in a line: High throughput screening against E488K ALDH1 mutant. The conditions noted are these: octylaldehyde and phenylacetaldehdye as substrates. An excerpt: The screening assays used octylaldehyde (an example of longer chain aliphatic aldehyde) and phenylacetaldehdye (an example of aromatic aldehyde), instead of acetaldehyde.

Another assay deals with T3, ALDH2 isozyme (Homo sapiens, UniProt P05091).
T3 construct: made in house; host or cells: BL21 E. coli
T3 sequence (P05091 18-517): T1 sequence (P05091 18-517 E504K) with K487E
The experiment in a line: ALDH2 enzymatic activity, spectrophotometric NAD+ to NADH assay. Conditions: acetaldehyde as substrate. The method, then: Reagents for plant-derived compounds safrole, isosafrole, piperine, sesamin, capsaicin were purchased from Sigma-Aldrich Chemicals and dihydromethysticin was purchased from AvaChem. Scientific. Piperine related compounds, Alda-101 to Alda-112, were synthesized by standard organic chemistry. All testing compounds were dissolved in dimethyl-sulfoxide (DMSO) to obtain a stock solution of 20 mM. Different recombinant ALDH isozymes with a His-epitope tag at the N-terminus were constructed, cloned and expressed in BL21 E. coli host cells according published methods (Chen et al., 2008 Science 321:1493). The bacteria were subjected to 0.5 mM IPTG induction for protein expression at 30° C. Purification of the recombinant proteins by affinity nickel columns were carried out using a standard protocol according to manufacturer's instructions (Novagen, Wis., USA).
ALDH enzymatic activity was determined spectrophotometrically using purified recombinant protein (15 ug) in the reductive reaction of NAD^+ to NADH at λ340 nm (Rex et al., 1985, Alcohol Clin Exp Res 9: 147). All the assays in the presence of absence of a testing compound were carried out at 25° C. in […] pyrophosphate buffer, pH=9.5, 2.4 mM NAD+ and 10 mM acetaldehyde or phenylacetaldehyde as a substrate.

Numbering of substitutions follows the chain as printed.

Consider `COc1c(C(=O)NCc2ccc3c(c2)OCO3)ccc2ccccc12` [Alda-52, 1-methoxy-naphthalene-2-carboxylic acid (benzo[1,3]dioxol-5-ylmethyl)-amide], for which the midpoint of the response on ALDH2, the EC50, lay at 3 µM.
As to `O=C(NCc1ccc2c(c1)OCO2)c1cc(-n2cnnc2)ccc1Cl` [Alda-53, N-benzo[1,3]dioxol-5-ylmethyl-2-chloro-5-[1,2,4]triazol-4-yl-benzamide], at ALDH2, the EC50 (usually the concentration giving half of the maximal effect) is 1.09 µM.
Turning to `CCn1cnc2c(=O)oc3ccc(S(=O)(=O)NCc4ccc5c(c4)OCO5)cc3c21` [Alda-54, 1-ethyl-4-oxo-1,4-dihydro-chromeno[3,4-d]imidazole-8-sulfonic acid (benzo[1,3]dioxol-5-ylmethyl)-amide], at ALDH2, the EC50 was 1.72 µM.
On the same count and under the same terms, in the case of `CCOC(=O)c1cc(-c2ccc(C)cc2)n(CCC(=O)N2CCN(c3ccccn3)CC2)c1C` [Alda-56, 2-methyl-1-[3-oxo-3-(4-pyridin-2-yl-piperazin-1-yl)-propyl]-5-p-tolyl-1H-pyrrole-3-carboxylic acid ethyl ester] it was 3.65 µM; in that of `CCCCC(=O)Nc1cc(-c2ccc(C)cc2)no1` [Alda-57, pentanoic acid (3-p-tolyl-isoxazol-5-yl)-amide], 1.4 µM.
For the molecule `NC(=O)c1cc(S(=O)(=O)NCc2ccc3c(c2)OCO3)cs1` [Alda-59, 4-[(benzo[1,3]dioxol-5-ylmethyl)-sulfamoyl]-thiophene-2-carboxylic acid amide], a half-maximal effect at ALDH2 (EC50) was put at 4.6 µM.
Same read-out and setting: under `Cc1ccc(CNS(=O)(=O)c2cc(-c3cc(C)no3)ccc2C)cc1` [Alda-60, 2-methyl-N-(4-methyl-benzyl)-5-(3-methyl-isoxazol-5-yl)-benzene sulfonamide] stands 4.96 µM.
The same measure, in the same setting: under `Cc1ccc(CNS(=O)(=O)c2cc(-c3onc(C)c3C)ccc2C)cc1` [Alda-61, 5-(3,4-dimethyl-isoxazol-5-yl)-2-methyl-N-(4-methyl-benzyl)-benzene sulfonamide] stands 6.44 µM; under `COc1cccc(CNc2nccn(-c3ccc(C)c(C)c3)c2=O)c1` [Alda-62, 1-(3,4-dimethyl-phenyl)-3-(3-methoxy-benzylamino)-1H-pyrazin-2-one], 14.7 µM; under `COc1ccccc1CNc1nccn(-c2ccc3c(c2)OCCO3)c1=O` [Alda-63, 1-(2,3-dihydro-benzo[1,4]dioxin-6-yl)-3-(2-methoxy-benzylamino)-1H-pyrazin-2-one], 12.4 µM.
With `O=C(C1COc2cc(S(=O)(=O)NCc3ccccc3Cl)ccc2O1)N1CCCCCC1` (centres unmarked) [Alda-64, 2-(azepane-1-carbonyl)-N-(2-chloro-benzyl)-2,3-dihydro-benzo[1,4]dioxine-6-sulfonamide], the half-maximal effective concentration (EC50) on ALDH2 came to 2.2 µM.
On to `Cc1cc(C)cc(NC(=O)CSC2=Nc3ccccc3C3=NC(C(C)C)C(=O)N23)c1` (centres unmarked) [Alda-65, N-(3,5-dimethyl-phenyl)-2-(2-isopropyl-3-oxo-2,3-dihydro-imidazo[1,2-c]quinazolin-5-ylsulfanyl)-acetamide], for which the EC50 at ALDH2 stood at 8.41 µM.
On to `Cc1ccc(CNC(=O)C(C)SC2=Nc3ccccc3C3=NC(C(C)C)C(=O)N23)cc1` (centres unmarked) [Alda-66, 2-(2-isopropyl-3-oxo-2,3-dihydro-imidazo[1,2-c]quinazolin-5-ylsulfanyl)-N-(4-methyl-benzyl)-propionamide], for which it took 2.66 µM to reach a half-maximal effect on ALDH2 (EC50).
Same read-out and setting: in the case of `Cc1ccc(-n2ncc3c(N(CCO)Cc4ccccc4)ncnc32)cc1Cl` [Alda-67, 2-{benzyl-[1-(3-chloro-4-methyl-phenyl)-1H-pyrazolo[3,4-d]pyrimidin-4-yl]-amino}-ethanol] it was 3.42 µM; in that of `Cc1ccc(N2CC(c3nc(-c4cccnc4)no3)CC2=O)cc1Cl` (centres unmarked) [Alda-69, 1-(3-chloro-4-methyl-phenyl)-4-(3-pyridin-3-yl-[1,2,4]oxadiazol-5-yl)-pyrrolidin-2-one], 8.9 µM.
For the molecule `Cc1ccc(N2CC(c3nc(-c4ccncc4)no3)CC2=O)cc1F` (centres unmarked) [Alda-70, 1-(3-fluoro-4-methyl-phenyl)-4-(3-pyridin-4-yl-[1,2,4]oxadiazol-5-yl)-pyrrolidin-2-one], at ALDH2, the midpoint of the response, the EC50, lay at 5.57 µM.
Same read-out and setting: under `Cc1ccc(CNC(=O)Cn2c3ccccc3c3cn[nH]c(=O)c32)cc1` [Alda-71, N-(4-methyl-benzyl)-2-(1-oxo-1,2-dihydro-2,3,9-triaza-fluoren-9-yl)-acetamide] stands 16.6 µM; under `O=C(Cn1c2ccccc2c2cn[nH]c(=O)c21)NCc1ccc2c(c1)OCO2` [Alda-72, N-benzo[1,3]dioxol-5-ylmethyl-2-(1-oxo-1,2-dihydro-2,3,9-triaza-fluoren-9-yl)-acetamide], 2.92 µM.
The same measure, in the same setting: in the case of `Cc1ccc(-n2cc(-c3ccccc3)c3c(N4CCN(CCO)CC4)ncnc32)cc1Cl` [Alda-73, 2-{4-[7-(3-chloro-4-methyl-phenyl)-5-phenyl-7H-pyrrolo[2,3-d]pyrimidin-4-yl]-piperazin-1-yl}-ethanol] it was 3.55 µM.
With `C=CCn1c(C(C)NC(=O)c2ccccc2)nc2ccccc21` (centres unmarked) [Alda-81, N-[1-(1-allyl-1H-benzoimidazol-2-yl)-ethyl]-benzamide], the “identified as ALDH1 activator” value in assay [1] is “ALDH1 activators”.
Still for that read-out and setting: in the case of `COc1ccc(C2C(C#N)=C(C)NC3=C2C(=O)CC(c2ccc(Cl)cc2)C3)cc1` (centres unmarked) [Alda-83, 7-(4-chloro-phenyl)-4-(4-methoxy-phenyl)-2-methyl-5-oxo-1,4,5,6,7,8-hexahydro-quinoline-3-carbonitrile] it was “ALDH1 activators”.
With `C=CCc1ccc2c(c1)OCO2` [safrole, 5-(2-propenyl)-1,3-benzodioxole], the “effect on enzymatic activity of ALDH2 isozyme” value at ALDH2 isozyme (500 uM & 1000 uM, FIG. 17) is listed as “Inhibitory effect”. The “effect on enzymatic activity of ALDH2 isozyme, 15-minute kinetic measurements” value on ALDH2 isozyme (1000 uM, FIG. 18) was “inhibitory effect”.
